Measured values as given in publication PMC9330922, “Genomewide Analysis and Biological Characterization of Cathelicidins with Potent Antimicrobial Activity and Low Cytotoxicity from Three Bat Species” (Antibiotics, 2022).
Where two headings read alike, the source gives them in different places.

What was measured:
Assay in all cases: microbe, parasite or virus in culture
Format in all cases: cell-based
[1] = tested on: Cryptococcus cuniculi KCTC 17232; conditions: WST colorimetric
Procedure: (§1) The antifungal activities of the peptides were evaluated against two yeast fungi, C. albicans KCTC 7270 and C. cuniculi KCTC 17232, and a mold fungus, M. hiemalis KCTC 26779. C. albicans and C. cuniculi were cultured in yeast mold broth (YMB; BD Science) agar at 35 °C and 25 °C, respectively. Cells were prepared in YMB for C. albicans and RPMI 1640 medium (with l-glutamine, without phenol red and sodium bicarbonate, Sigma Aldrich, Saint Louis, MO, USA) and adjusted to pH 7.0 with 0.165 M 3-(N-morpholino) propanesulfonic acid (MOPS) (iNtRON Biotechnology, Seoul, Korea), as previously described for C. cuniculi. According to the 0.5 McFarland standard, cells at 1.5 × 10^5 CFU/well were seeded into a 96-well plate containing 180 µL of fresh medium. Subsequently, peptides at final concentrations of 5–45 ug/mL (1.2–19.3 μM) peptides were added to each well. Ciclopirox (≥98% (HPLC), Sigma Aldrich) was used as a reference for the antifungal activity. The antifungal assay was conducted in the same manner as the antibacterial assay described above, according to the manufacturer’s protocol. Briefly, C. albicans and C. cuniculi were incubated at 35 °C for 6 h and 25 °C for 47 h, respectively, and 10 µL of the coloring reagent was added and further incubated for 18 h and 25 h. The MIC values were determined in the same way as for the antibacterial assay.

[2] = tested on: Candida albicans KCTC 7270; conditions: WST colorimetric, YMB
Procedure: as §1

[3] = tested on: Mucor hiemalis KCTC 26779; conditions: KCTC26779, concentration not given, peptides tested at 20, 40, and 80 µg/mL, fluvastatin sodium 70 µM, read-out: rate of metabolic inhibition
Procedure: To evaluate the antifungal activity of peptides against M. hiemalis, the metabolic activity of hyphae was measured using the same colorimetric assay as described above, with slight modifications to a previous study. Briefly, M. hiemalis was streaked onto malt extract broth (BD Biosciences) agar in a Petri dish and cultured at 25 °C for seven days. Then, conidia were collected from the dish by adding phosphate buffered saline (PBS) containing 0.05% Tween-80 (Sigma Aldrich) and filtered through sterilized 40 um cell strainer (SPL Life Science, Pocheon, Korea) to remove hyphae. After washing twice with PBS and centrifugation, 5 × 10^4 conidia were counted using a hemocytometer, suspended in 50 µL of RPMI 1640 as described above, and seeded in wells of a 96-well plate. After 16 h of incubation at 25 °C for hyphae formation, the plate was centrifuged at 3000× g and the media were changed. The peptides were then added at final concentrations of 20, 40, and 80 µg/mL. Fluvastatin sodium (70 µM; Sigma-Aldrich) was used as a reference for antifungal activity. […] The absorbance at 450 nm (for the treated group and control) and 650 nm (for the background) was measured for each well using a microplate reader (xMarkTM spectrophotometer; Bio-Rad). The metabolic activity of the fungal cells was calculated using the following equation. […]

Structure (SMILES)	MIC ([1]; Cryptococcus, KCTC17232, value in brackets, RPMI 1640 with MOPS pH 7.0, 25 °C 47 h + 25 h, read-out: MIC) [µM]	MIC ([1]; RPMI 1640 with MOPS pH 7.0, 1.5 × 10^5 CFU/well, 25 °C 47 h + 25 h coloring reagent) [µg/mL]	MIC ([2]; Candida albicans, KCTC7270, value in brackets, 35 °C 6 h + 18 h, read-out: MIC (converted)) [µM]	MIC ([2]; 1.5 × 10^5 CFU/well, 35 °C 6 h + 18 h coloring reagent) [µg/mL]	inhibition at 70 µM [3] [%]
Cc1cc(C2CCCCC2)n(O)c(=O)c1 [Ciclopirox]	2.4	0.5	16.9	3.5	
CC(C)n1c(/C=C/C(O)CC(O)CC(=O)O)c(-c2ccc(F)cc2)c2ccccc21 (centres unmarked) [fluvastatin sodium, Fluvastatin sodium]					~80
